Patent publication US6716428B1, “Antigenic modification of polypeptides” (The Ohio State University Research Foundation, priority 1999, dated 2004)
Like-named read-outs stand apart in the source and are kept apart here. Square brackets hold non-standard residues; d marks the D form. Ends that are not written are not given here. Nle = CCCC[C@H](N)C(=O)O

Legend:
[1] = system: rabbit polyclonal antiserum to the 38-57 loop peptide; experiment: Competition radioimmunoassay with rabbit polyclonal antiserum to the 38-57 loop peptide; type: binding
Experimental: In the preceding examples, the studied available smallest peptide highly reactive to H-18 MAB was the 40-52 residue peptide and therefore, it was contemplated that the entire epitope resided within this sequence. By the procedures described in earlier examples for other peptides, peptides representing 50-52, 49-52, 48-52, 47-52, 46-52, 45-52, 44-52, 43-52, 42-52, and 41-52 were prepared and tested for reactivity with H-18 MAB and a rabbit polyclonal antiserum to the 38-57 loop peptide.
By earlier described procedures for other peptide preparations, peptides 43-45, 43-46, 43-48, 43-49, 43-50, and 43-51 were prepared to define the C-terminal boundary of the H-18 MAB epitope and to determine whether polyclonal antisera to the 38-57 loop reacted to sequences beyond the H-18 boundary. […] This latter immunogenicity could involve N-terminal residues 41 and 42 and the C-terminal residue 51.
Peptides with amino acid substitutions in the 43-50 sequence were unreactive.

HCG = experiment: Antibodies bound to HCG raised by conjugated 38-57 loop analogs and reference conjugates (Example XLIV); type: in vivo, human; details: for antibodies bound to HCG: mean peak binding of the antisera
Experimental: (§1) In an effort to obtain improved results over the analogs described in my earlier Example XLIII, further synthetic analogs of the unsubstituted 38-57 amino acid sequence of βHCG were prepared and evaluated in a similar manner as set forth in the prior examples. These analogs were provided with a disulfide bridge linking their 38 Cys and 57 Cys to form a loop and included the amino acid residue Ala (Pro)6 on the N-terminus as described earlier herein.
(§2) Table 33 illustrates nine analogs of the 38-57 loop peptide of βHCG with a varying number of amino acid substitutions in the positions outside the conceived 43-50 epitope sequence.
(§3) The antibodies values are expressed herein are as namomoles bound/L unless otherwise stated.

pituitary HLH = experiment: Antibodies bound to pituitary HLH raised by conjugated 38-57 loop analogs and reference conjugates (Example XLIV); type: in vivo, human; details: mean peak binding of the antisera
Experimental: as §1, §2, §3

female baboons [2] = system: female baboons
progesterone = details: female baboons
female baboons [3] = experiment: Fertility rates (matings and pregnancies) of immunized female baboons; type: in vivo, baboon; details: for Fertility Rate (%) / No. Pregnant: female baboons
[4] = post-immunization menstrual cycle 1
[5] = post-immunization menstrual cycle 2
[6] = post-immunization menstrual cycle 3
[7] = post-immunization menstrual cycle 4
[8] = post-immunization menstrual cycle 5
[9] = pre-immunization menstrual cycle −1
[10] = pre-immunization menstrual cycle −2
[11] = pre-immunization menstrual cycle −3

CPTMTRVLQGVLPALPQVVC (cysteine pairing not given here) [Structure (XXVII)]
antibodies against the peptide not directed to the 43-50 region [1]: about 5%

CPT[Nle]DRVLQGVLPAVPQVVC (cysteine pairing not given here) [analog number 2]
HCG antibodies bound, of those using the conjugated unsubstituted 38-57 loop sequence (HCG; in vivo): about 75%
antibodies bound to HCG (HCG): 420 nanomoles bound/L
antibodies bound to pituitary HLH (pituitary HLH): 13 nanomoles bound/L

conjugate including the βHCG 109-145 amino acid sequence: conjugate of the βHCG 109-145 sequence tested in Example XLIV (TCDDPRFQDSSSSKAPPPSLPSPSRLPGPSDTPILPQ; also: conjugated to carrier; UniProt P0DN86 129-165, looked up, fragment)
antibodies bound to HCG (HCG): 1240 nanomoles bound/L
antibodies bound to pituitary HLH (pituitary HLH): 0 nanomoles bound/L

diphtheria toxoid
Cycle Length (days), Mean (female baboons [2]; [4]): 32.7 days
Cycle Length (days), Mean (female baboons [2]; [5]): 33.1 days
Cycle Length (days), Mean (female baboons [2]; [6]): 34.0 days
Cycle Length (days), Mean (female baboons [2]; [7]): 30.0 days
Cycle Length (days), Mean (female baboons [2]; [8]): 31.0 days
Cycle Length (days), Mean (female baboons [2]; [9]): 33.2 days
Cycle Length (days), Mean (female baboons [2]; [10]): 33.5 days
Cycle Length (days), Mean (female baboons [2]; [11]): 34.4 days
Luteal phase Progesterone (ng/ml), Mean (progesterone; [4]): 4.3 ng/mL
Luteal phase Progesterone (ng/ml), Mean (progesterone; [5]): 6.0 ng/mL
Luteal phase Progesterone (ng/ml), Mean (progesterone; [6]): 7.0 ng/mL
Luteal phase Progesterone (ng/ml), Mean (progesterone; [7]): 5.9 ng/mL
Luteal phase Progesterone (ng/ml), Mean (progesterone; [8]): 6.0 ng/mL
Luteal phase Progesterone (ng/ml), Mean (progesterone; [9]): 6.0 ng/mL
Luteal phase Progesterone (ng/ml), Mean (progesterone; [10]): 6.8 ng/mL
Luteal phase Progesterone (ng/ml), Mean (progesterone; [11]): 6.9 ng/mL
Fertility Rate (female baboons [3]; Example XXXV, all matings of three mating cycles, CGP 11637, Squalene/Arlacel A): 70%
Fertility Rate (%) (female baboons [3]; mating cycle 1): 73.3%
No. Pregnant (female baboons [3]; mating cycle 1): 11
Fertility Rate (%) (female baboons [3]; mating cycle 2): 75.0%
No. Pregnant (female baboons [3]; mating cycle 2): 3
Fertility Rate (%) (female baboons [3]; mating cycle 3): 0%
No. Pregnant (female baboons [3]; mating cycle 3): 0
Fertility Rate (%) (female baboons [3]; totals of mating cycles 1-3): 70.0%
No. Pregnant (female baboons [3]; totals of mating cycles 1-3): 14
pregnancies in total (female baboons [3]; in vivo): 14
